Test results reported in PMC6213981, “Crystal structures and kinetics of N-acetylneuraminate lyase from Fusobacterium nucleatum” (Acta Crystallographica. Section F, Structural Biology …, 2018).

Target: T1, FnNanA (Fusobacterium nucleatum, UniProt Q8RDN6)
T1 construct: gene nanA; pET300/NT-DEST, synthetic DNA, E. coli BL21 (DE3); tetramer
T1 sequence (Q8RDN6 1-290): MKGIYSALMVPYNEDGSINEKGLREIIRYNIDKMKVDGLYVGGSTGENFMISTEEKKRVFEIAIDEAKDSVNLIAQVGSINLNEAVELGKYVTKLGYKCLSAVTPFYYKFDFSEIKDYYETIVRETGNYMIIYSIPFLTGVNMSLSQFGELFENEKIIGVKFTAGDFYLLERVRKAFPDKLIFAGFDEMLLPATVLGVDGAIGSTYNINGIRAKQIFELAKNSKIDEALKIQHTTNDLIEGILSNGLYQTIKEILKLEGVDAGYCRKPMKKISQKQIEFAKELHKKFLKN
Assay: X-ray crystal structure, […] Å
Type: binding
Conditions: covalent; Schiff base with Lys161 in active site; crystallised at pH 9.5, 277 K

## CC(=O)C(=O)O [pyruvate]
  X-ray crystal structure, 1.76 Å: N∊ atom of Lys161 is conjugated as a Schiff base to the C2 atom of pyruvate
